These results are taken from patent US9549932B2, “2-(morpholin-4-yl)-1,7-naphthyridines” (BAYER PHARMA AKTIENGESELLSCHAFT, priority 2014, dated 2017).

For the assay, the target named is full-length human ATR protein (Homo sapiens (Human), UniProt Q13535). The assay can be described thus: Binding assay ATR (TR-FRET tracer displacement). Particulars: TR-FRET. A digest of the protocol: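 Full-length human GST-ATR co-purified with ATRIP, pre-complexed 30 min at 22 °C with anti-GST-Tb antibody, then pre-bound with compound 10 min. Tracer A or B added (2 µl of 100 nM solution), 30 min at 22 °C.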

[1] abbreviates: tracer A, read-out: ATR binding (tracer A) IC50.

Read-outs that look alike come from different tables or passages of the source.

Chain of full-length human ATR protein (Q13535 other isoform, or with tags, fused parts or gaps): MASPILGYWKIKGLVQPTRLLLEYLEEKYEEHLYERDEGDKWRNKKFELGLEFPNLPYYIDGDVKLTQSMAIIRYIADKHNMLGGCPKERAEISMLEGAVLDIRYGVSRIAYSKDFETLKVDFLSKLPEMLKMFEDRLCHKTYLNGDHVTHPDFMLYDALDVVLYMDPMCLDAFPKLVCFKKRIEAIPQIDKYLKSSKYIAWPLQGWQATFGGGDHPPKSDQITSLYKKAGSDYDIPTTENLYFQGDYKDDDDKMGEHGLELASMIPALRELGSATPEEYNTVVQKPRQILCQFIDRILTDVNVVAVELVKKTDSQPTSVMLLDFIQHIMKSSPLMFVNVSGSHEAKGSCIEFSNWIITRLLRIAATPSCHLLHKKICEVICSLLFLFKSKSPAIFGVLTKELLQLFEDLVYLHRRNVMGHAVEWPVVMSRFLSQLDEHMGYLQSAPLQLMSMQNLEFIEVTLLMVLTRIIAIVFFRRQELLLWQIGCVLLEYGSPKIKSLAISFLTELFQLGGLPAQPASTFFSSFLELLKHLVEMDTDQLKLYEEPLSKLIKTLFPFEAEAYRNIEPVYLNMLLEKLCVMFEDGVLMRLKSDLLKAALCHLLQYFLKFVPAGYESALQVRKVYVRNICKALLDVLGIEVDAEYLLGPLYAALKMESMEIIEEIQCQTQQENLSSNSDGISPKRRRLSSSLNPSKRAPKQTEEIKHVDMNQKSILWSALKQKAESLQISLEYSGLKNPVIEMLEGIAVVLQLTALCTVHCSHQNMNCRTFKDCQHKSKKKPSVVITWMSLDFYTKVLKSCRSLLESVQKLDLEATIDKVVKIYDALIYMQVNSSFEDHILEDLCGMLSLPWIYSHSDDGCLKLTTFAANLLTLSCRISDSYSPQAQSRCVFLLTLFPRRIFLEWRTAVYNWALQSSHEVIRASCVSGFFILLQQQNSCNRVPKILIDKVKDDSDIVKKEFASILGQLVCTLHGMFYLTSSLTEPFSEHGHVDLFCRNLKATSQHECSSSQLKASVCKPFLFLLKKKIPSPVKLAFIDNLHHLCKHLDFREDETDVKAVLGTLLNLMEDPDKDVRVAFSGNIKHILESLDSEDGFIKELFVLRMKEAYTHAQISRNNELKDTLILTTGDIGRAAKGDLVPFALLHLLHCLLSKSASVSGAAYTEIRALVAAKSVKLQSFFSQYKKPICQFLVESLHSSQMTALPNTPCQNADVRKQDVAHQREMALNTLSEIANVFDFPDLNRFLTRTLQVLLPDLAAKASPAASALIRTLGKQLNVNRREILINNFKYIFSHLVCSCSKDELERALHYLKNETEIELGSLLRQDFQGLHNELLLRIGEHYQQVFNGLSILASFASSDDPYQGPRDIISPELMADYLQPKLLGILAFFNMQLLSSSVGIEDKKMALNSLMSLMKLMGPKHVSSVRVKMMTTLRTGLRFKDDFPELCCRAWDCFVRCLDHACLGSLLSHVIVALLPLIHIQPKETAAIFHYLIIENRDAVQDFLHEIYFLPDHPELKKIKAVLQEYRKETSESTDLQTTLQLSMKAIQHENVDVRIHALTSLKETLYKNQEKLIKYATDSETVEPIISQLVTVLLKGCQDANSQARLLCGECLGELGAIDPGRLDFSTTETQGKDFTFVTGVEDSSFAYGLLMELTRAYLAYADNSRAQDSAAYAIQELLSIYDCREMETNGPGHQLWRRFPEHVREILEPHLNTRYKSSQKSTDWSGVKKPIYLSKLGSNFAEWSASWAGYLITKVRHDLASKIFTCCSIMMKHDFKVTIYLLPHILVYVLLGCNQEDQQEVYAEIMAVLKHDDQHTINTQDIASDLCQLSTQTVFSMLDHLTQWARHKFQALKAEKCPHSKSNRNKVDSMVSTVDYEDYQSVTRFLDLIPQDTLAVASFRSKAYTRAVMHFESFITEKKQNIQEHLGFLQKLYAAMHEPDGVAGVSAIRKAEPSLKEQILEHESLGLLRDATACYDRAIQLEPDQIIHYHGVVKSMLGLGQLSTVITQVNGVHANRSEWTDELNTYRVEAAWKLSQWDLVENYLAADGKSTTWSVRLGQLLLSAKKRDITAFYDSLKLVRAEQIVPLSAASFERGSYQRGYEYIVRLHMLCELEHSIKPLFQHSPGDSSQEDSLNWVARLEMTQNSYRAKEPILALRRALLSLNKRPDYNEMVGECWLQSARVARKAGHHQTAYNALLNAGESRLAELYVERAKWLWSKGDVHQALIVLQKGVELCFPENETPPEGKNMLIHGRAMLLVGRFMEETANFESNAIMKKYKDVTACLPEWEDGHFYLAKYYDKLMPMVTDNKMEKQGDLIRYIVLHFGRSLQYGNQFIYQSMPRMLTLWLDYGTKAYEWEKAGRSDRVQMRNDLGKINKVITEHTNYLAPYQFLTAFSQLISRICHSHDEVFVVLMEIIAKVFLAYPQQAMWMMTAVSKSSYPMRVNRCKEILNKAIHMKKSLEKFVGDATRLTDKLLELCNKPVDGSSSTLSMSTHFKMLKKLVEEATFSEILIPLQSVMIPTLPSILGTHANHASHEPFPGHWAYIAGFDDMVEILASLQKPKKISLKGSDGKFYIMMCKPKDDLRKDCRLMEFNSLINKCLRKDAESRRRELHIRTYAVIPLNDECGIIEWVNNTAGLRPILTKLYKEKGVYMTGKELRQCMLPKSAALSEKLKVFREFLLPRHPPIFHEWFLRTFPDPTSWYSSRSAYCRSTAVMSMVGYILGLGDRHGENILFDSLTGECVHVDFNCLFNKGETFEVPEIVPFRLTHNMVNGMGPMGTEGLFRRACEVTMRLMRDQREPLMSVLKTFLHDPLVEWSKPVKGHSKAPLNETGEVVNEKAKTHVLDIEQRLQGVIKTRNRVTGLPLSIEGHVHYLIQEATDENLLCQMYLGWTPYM
Chain of full-length human ATR protein (Q8WXE1 other isoform, or with tags, fused parts or gaps partner): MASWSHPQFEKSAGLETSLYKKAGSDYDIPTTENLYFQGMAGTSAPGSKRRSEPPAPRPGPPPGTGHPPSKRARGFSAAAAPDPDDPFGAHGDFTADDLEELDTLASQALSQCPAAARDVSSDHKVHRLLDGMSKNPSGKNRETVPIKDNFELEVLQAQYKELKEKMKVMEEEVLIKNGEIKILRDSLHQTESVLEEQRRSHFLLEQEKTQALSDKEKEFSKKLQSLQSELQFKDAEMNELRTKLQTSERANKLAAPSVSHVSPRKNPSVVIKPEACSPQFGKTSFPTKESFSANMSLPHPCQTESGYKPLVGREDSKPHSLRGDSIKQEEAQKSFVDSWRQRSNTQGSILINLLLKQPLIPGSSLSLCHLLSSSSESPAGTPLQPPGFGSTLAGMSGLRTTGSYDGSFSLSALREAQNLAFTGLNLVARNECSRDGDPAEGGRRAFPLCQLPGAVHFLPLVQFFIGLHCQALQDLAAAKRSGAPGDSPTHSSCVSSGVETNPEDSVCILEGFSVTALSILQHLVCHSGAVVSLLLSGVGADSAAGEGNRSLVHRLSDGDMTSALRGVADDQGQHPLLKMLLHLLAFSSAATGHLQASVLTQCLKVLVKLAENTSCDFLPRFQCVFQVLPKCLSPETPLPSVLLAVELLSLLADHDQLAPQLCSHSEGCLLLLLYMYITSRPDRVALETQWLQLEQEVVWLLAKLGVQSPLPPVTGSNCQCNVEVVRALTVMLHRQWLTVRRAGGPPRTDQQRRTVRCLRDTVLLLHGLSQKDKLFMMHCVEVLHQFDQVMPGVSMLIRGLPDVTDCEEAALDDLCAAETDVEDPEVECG

As for `COCCS(C)(=O)=Nc1cc(N2CCOC[C@H]2C)nc2c(-c3ccn[nH]3)nccc12` (stereo partly drawn) [Example 274, 4-{[(2-methoxyethyl)(methyl)oxido-λ^6-sulfanylidene]amino}-2-[(3R)-3-methylmorpholin-4-yl]-8-(1H-pyrazol-5-yl)-1,7-naphthyridine], under setting [1], the IC50 is 62.7 nM.
Turning to `C[C@@H]1COCCN1c1cc(N=S(C)(=O)c2ccccc2O)c2ccnc(-c3ccn[nH]3)c2n1` (stereo partly drawn) [Example 276, 2-(methyl-N-{2-[(3R)-3-methylmorpholin-4-yl]-8-(1H-pyrazol-5-yl)-1,7-naphthyridin-4-yl}sulfonimidoyl)phenol], the half-inhibitory concentration (IC50) under setting [1] is 237 nM.
On the same count and under the same terms, for `C[C@@H]1COCCN1c1cc(N=S(C)(=O)c2ccc(Br)cc2)c2ccnc(-c3ccn[nH]3)c2n1` (stereo partly shown) [Example 277] the value was 78.2 nM.
`C[C@@H]1COCCN1c1cc(N=S(C)(=O)C(C)(C)C)c2ccnc(-c3ccn[nH]3)c2n1` (stereo partly drawn) [Example 278, 4-{[tert-butyl(methyl)oxido-λ^6-sulfanylidene]amino}-2-[(3R)-3-methylmorpholin-4-yl]-8-(1H-pyrazol-5-yl)-1,7-naphthyridine]: the IC50 under setting [1] stood at 26.9 nM.
For `O=S1(=Nc2cc(N3CCOCC3)nc3c(-c4ccn[nH]4)nccc23)CCOCC1` [Example 279, formic acid - N-[2-(morpholin-4-yl)-8-(1H-pyrazol-5-yl)-1,7-naphthyridin-4-yI]-1,4k4-oxathian-4-imine 4-oxide (1:1)], the IC50 under setting [1] was found to be 293 nM.
As to `O=S1(=Nc2cc(N3CCOCC3)nc3c(-c4ccn[nH]4)nccc23)CCCCC1` [Example 280, N-[2-(morpholin-4-yl)-8-(1H-pyrazol-5-yl)-1,7-naphthyridin-4-yl]hexahydro-1λ^4-thiopyran-1-imine 1-oxide], the IC50 under setting [1] is 46.8 nM.
On to `CC(C)C(C)(O)c1cc(N2CCOC[C@H]2C)nc2c(-c3ccn[nH]3)nccc12` (stereo partly drawn) [Example 281, 3-methyl-2-{2-[(3R)-3-methylmorpholin-4-yl]-8-(1H-pyrazol-5-yl)-1,7-naphthyridin-4-yl}butan-2-ol], for which the concentration for half-maximal inhibition (IC50) under setting [1] came out at 13.6 nM.
Same read-out and setting: the result for `C[C@@H]1COCCN1c1cc(C(C)(O)C2CCOCC2)c2ccnc(-c3ccn[nH]3)c2n1` (stereo partly drawn) [Example 282, 1-{2-[(3R)-3-methylmorpholin-4-yl]-8-(1H-pyrazol-5-yl)-1,7-naphthyridin-4-yl}-1-(tetrahydro-2H-pyran-4-yl)ethanol] reads 12.7 nM; that for `CCCCC(C)(O)c1cc(N2CCOC[C@H]2C)nc2c(-c3ccn[nH]3)nccc12` (stereo partly drawn) [Example 284, 2-{2-[(3R)-3-methylmorpholin-4-yl]-8-(1H-pyrazol-5-yl)-1,7-naphthyridin-4-yl}hexan-2-ol], 41.6 nM.
On the same count and under the same terms, for `C[C@@H]1COCCN1c1cc(C(N)=O)c2ccnc(-c3cc[nH]n3)c2n1` [Example 285, 2-[(3R)-3-methylmorpholin-4-yl]-8-(1H-pyrazol-3-yl)-1,7-naphthyridine-4-carboxamide] the value was 509 nM; for `C[C@@H]1COCCN1c1cc(C2(S(C)(=O)=O)CC2)c2ccnc(-c3ccn[nH]3)c2n1` [Example 286, 2-[(3R)-3-methylmorpholin-4-yl]-4-[1-(methylsulfonyl)cyclopropyl]-8-(1H-pyrazol-5-yl)-1,7-naphthyridine], 14.5 nM.
`c1cc(-c2nccc3c(OCC4CCOCC4)cc(N4CCOCC4)nc23)[nH]n1` [Example 287, 2-(morpholin-4-yl)-8-(1H-pyrazol-5-yl)-4-(tetrahydro-2H-pyran-4-ylmethoxy)-1,7-naphthyridine]: the half-maximal inhibitory concentration (IC50) runs as follows: under setting [1], 675 nM; (tracer B, read-out: ATR binding (tracer B) IC50) 461 nM.
`CN(C)C(=O)c1cccc(-c2cc(N3CCOCC3)nc3c(-c4ccn[nH]4)nccc23)c1` [Example 288, N,N-dimethyl-3-[2-(morpholin-4-yl)-8-(1H-pyrazol-5-yl)-1,7-naphthyridin-4-yl]benzamide]: under setting [1], the half-maximal inhibitory concentration (IC50) was 345 nM.
For `O=C(c1ccc(-c2cc(N3CCOCC3)nc3c(-c4ccn[nH]4)nccc23)cc1)N1CCCCC1` [Example 289, {4-[2-(morpholin-4-yl)-8-(1H-pyrazol-5-yl)-1,7-naphthyridin-4-yl]phenyl}(piperidin-1-yl)methanone], the concentration for half-maximal inhibition (IC50) under setting [1] came out at 2990 nM.
As to `CN(C)C(=O)c1ccccc1-c1cc(N2CCOCC2)nc2c(-c3ccn[nH]3)nccc12` [Example 290, N,N-dimethyl-2-[2-(morpholin-4-yl)-8-(1H-pyrazol-5-yl)-1,7-naphthyridin-4-yl]benzamide], the IC50 under setting [1] was determined as 1190 nM.
As to `O=C(NC1CC1)c1ccc(-c2cc(N3CCOCC3)nc3c(-c4ccn[nH]4)nccc23)cc1` [Example 291, N-cyclopropyl-4-[2-(morpholin-4-yl)-8-(1H-pyrazol-5-yl)-1,7-naphthyridin-4-yl]benzamide], the IC50 under setting [1] came to 83.7 nM.
In the case of `Cc1ccncc1-c1cc(N2CCOCC2)nc2c(-c3ccn[nH]3)nccc12` [Example 292, 4-(4-methylpyridin-3-yl)-2-(morpholin-4-yl)-8-(1H-pyrazol-5-yl)-1,7-naphthyridine], the IC50 under setting [1] worked out at 108 nM.
In the case of `c1cc(-c2nccc3c(-c4ccc5cc[nH]c5c4)cc(N4CCOCC4)nc23)[nH]n1` [Example 293, 4-(1H-indo1-6-yl)-2-(morpholin-4-yl)-8-(1H-pyrazol-5-yl)-1,7-naphthyridine], the IC50 under setting [1] amounted to 328 nM.
Take `c1cc(-c2cc(N3CCOCC3)nc3c(-c4ccn[nH]4)nccc23)c2cc[nH]c2c1` [Example 294, 4-(1H-indo1-4-yl)-2-(morpholin-4-yl)-8-(1H-pyrazol-5-yl)-1,7-naphthyridine]: under setting [1], the IC50 was 37.2 nM.
As for `NC(=O)c1cccc(-c2cc(N3CCOCC3)nc3c(-c4ccn[nH]4)nccc23)c1` [Example 295, 3-[2-(morpholin-4-yl)-8-(1H-pyrazol-5-yl)-1,7-naphthyridin-4-yl]benzamide], the IC50 under setting [1] is 113 nM.
On to `NC(=O)c1ccc(-c2cc(N3CCOCC3)nc3c(-c4ccn[nH]4)nccc23)cc1` [Example 296, 4-[2-(morpholin-4-yl)-8-(1H-pyrazol-5-yl)-1,7-naphthyridin-4-yl]benzamide], for which the IC50 under setting [1] was 76.8 nM.
With `CNC(=O)c1cccc(-c2cc(N3CCOCC3)nc3c(-c4ccn[nH]4)nccc23)c1` [Example 297, N-methyl-3-[2-(morpholin-4-yl)-8-(1H-pyrazol-5-yl)-1,7-naphthyridin-4-yl]benzamide], the IC50 under setting [1] came to 119 nM.
Same read-out and setting: the result for `Fc1cccc(-c2cc(N3CCOCC3)nc3c(-c4ccn[nH]4)nccc23)c1` [Example 298, 4-(3-fluorophenyl)-2-(morpholin-4-yl)-8-(1H-pyrazol-5-yl)-1,7-naphthyridine] reads 59.2 nM; that for `Clc1ccc(-c2cc(N3CCOCC3)nc3c(-c4ccn[nH]4)nccc23)s1` [Example 299, 4-(5-chlorothiophen-2-yl)-2-(morpholin-4-yl)-8-(1H-pyrazol-5-yl)-1,7-naphthyridine], 55.2 nM; that for `COc1ccccc1-c1cc(N2CCOCC2)nc2c(-c3ccn[nH]3)nccc12` [Example 300, 4-(2-methoxyphenyl)-2-(morpholin-4-yl)-8-(1H-pyrazol-5-yl)-1,7-naphthyridine], 181 nM.
Turning to `FC(F)(F)c1ccccc1-c1cc(N2CCOCC2)nc2c(-c3ccn[nH]3)nccc12` [Example 301, 2-(morpholin-4-yl)-8-(1H-pyrazol-5-yl)-4-[2-(trifluoromethyl)phenyl]-1,7-naphthyridine], the IC50 under setting [1] amounted to 21.6 nM.
Take `FC(F)(F)c1ccc(-c2cc(N3CCOCC3)nc3c(-c4ccn[nH]4)nccc23)cc1` [Example 302, 2-(morpholin-4-yl)-8-(1H-pyrazol-5-yl)-4-[4-(trifluoromethyl)phenyl]-1,7-naphthyridine]: the IC50 under setting [1] amounted to 188 nM.
On to `FC(F)(F)c1cccc(-c2cc(N3CCOCC3)nc3c(-c4ccn[nH]4)nccc23)c1` [Example 303, 2-(morpholin-4-yl)-8-(1H-pyrazol-5-yl)-4-[3-(trifluoromethyl)phenyl]-1,7-naphthyridine], for which, under setting [1], the IC50 amounted to 86.1 nM.
With `Clc1cccc(-c2cc(N3CCOCC3)nc3c(-c4ccn[nH]4)nccc23)c1` [Example 304, 4-(3-chlorophenyl)-2-(morpholin-4-yl)-8-(1H-pyrazol-5-yl)-1,7-naphthyridine], the concentration for half-maximal inhibition (IC50) under setting [1] was 57.2 nM.
As to `CC(=O)Nc1cccc(-c2cc(N3CCOCC3)nc3c(-c4ccn[nH]4)nccc23)c1` [Example 305, N-{3-[2-(morpholin-4-yl)-8-(1H-pyrazol-5-yl)-1,7-naphthyridin-4-yl]phenyl}acetamide], the IC50 under setting [1] came to 133 nM.
For the compound `COc1cccc(-c2cc(N3CCOCC3)nc3c(-c4ccn[nH]4)nccc23)c1` [Example 306, 4-(3-methoxyphenyl)-2-(morpholin-4-yl)-8-(1H-pyrazol-5-yl)-1,7-naphthyridine], the IC50 under setting [1] was 82.3 nM.
As for `COc1cc(OC)cc(-c2cc(N3CCOCC3)nc3c(-c4ccn[nH]4)nccc23)c1` [Example 307, 4-(3,5-dimethoxyphenyl)-2-(morpholin-4-yl)-8-(1H-pyrazol-5-yl)-1,7-naphthyridine], the 50% inhibitory concentration (IC50) under setting [1] was determined as 189 nM.
For the compound `Cc1cccc(-c2cc(N3CCOCC3)nc3c(-c4ccn[nH]4)nccc23)c1` [Example 308, 4-(3-methylphenyl)-2-(morpholin-4-yl)-8-(1H-pyrazol-5-yl)-1,7-naphthyridine], under setting [1], the half-inhibitory concentration (IC50) turned out to be 131 nM.
With `COc1ccc(-c2cc(N3CCOCC3)nc3c(-c4ccn[nH]4)nccc23)cc1` [Example 309, 4-(4-methoxyphenyl)-2-(morpholin-4-yl)-8-(1H-pyrazol-5-yl)-1,7-naphthyridine], the IC50 under setting [1] came to 146 nM.
As to `c1coc(Cc2cc(N3CCOCC3)nc3c(-c4ccn[nH]4)nccc23)c1` [Example 310, 4-(furan-2-ylmethyI)-2-(morpholin-4-yl)-8-(1H-pyrazol-5-yl)-1,7-naphthyridine], the half-maximal inhibitory concentration (IC50) under setting [1] was determined as 97.7 nM.
Turning to `Cc1cc(-c2cc(N3CCOCC3)nc3c(-c4ccn[nH]4)nccc23)cc(C)c1O` [Example 311, 2,6-dimethyl-4-[2-(morpholin-4-yl)-8-(1H-pyrazol-5-yl)-1,7-naphthyridin-4-yl]phenol], under setting [1], the half-maximal inhibitory concentration (IC50) came out at 376 nM.
